Test results taken from patent US20090163577A1, “METHODS AND COMPOSITIONS FOR ANTAGONIZING ANTI-APOPTOTIC Bcl-2-FAMILY PROTEINS” (Burnham Institute for Medical Research, priority 2007, published 2009).
“Also recorded” adds a separate entry of the source. Read-outs that look alike come from different tables or passages of the source. Each block holds one compound with its values, some of them ahead of it.

Key:
[1] = target: T1, Mcl-1 (Homo sapiens, UniProt Q07820); assay: FPA competitive FITC-Bid BH3 peptide displacement, Mcl-1; format: binding; conditions: 100 nM GST-Mcl-1, 5 nM FITC-Bid BH3 peptide, read-out: IC50 (μM) for Gambogic acid
T1 construct: lacking their C-terminal transmembrane domains (last 20 amino-acids) (“ΔTM”); made in house; host or cells: E. coli XL-1 Blue (pGEX 4T-1)
T1 sequence (Q07820 1-330 limits assumed): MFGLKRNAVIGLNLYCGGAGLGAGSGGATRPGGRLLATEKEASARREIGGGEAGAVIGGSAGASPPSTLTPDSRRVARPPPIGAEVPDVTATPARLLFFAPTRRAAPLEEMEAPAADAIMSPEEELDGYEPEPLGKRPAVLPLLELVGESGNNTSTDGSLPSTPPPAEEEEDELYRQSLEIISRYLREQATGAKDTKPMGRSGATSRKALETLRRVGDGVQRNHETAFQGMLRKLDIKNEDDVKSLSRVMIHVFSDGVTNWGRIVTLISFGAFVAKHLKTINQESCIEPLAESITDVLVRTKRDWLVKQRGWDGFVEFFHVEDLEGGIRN
From the text: (§1) (A) Structure of gambogic acid.
(§2) Fluorescence Polarization Assays (FPAs).
(§3) Competitive Peptide Displacement Assays.

[2] = system: Bax, Bcl-2, transferrin receptor; conditions: cited from earlier work
[3] = target: T2, Bfl-1 (Homo sapiens, UniProt Q16548); assay: FPA competitive FITC-Bid BH3 peptide displacement, Bfl-1 (also HTS); conditions: for activity in BH3 displacement assays: FPA, FITC-Bid BH3 peptide, compared with GA
T2 sequence (Q16548 1-155 limits assumed): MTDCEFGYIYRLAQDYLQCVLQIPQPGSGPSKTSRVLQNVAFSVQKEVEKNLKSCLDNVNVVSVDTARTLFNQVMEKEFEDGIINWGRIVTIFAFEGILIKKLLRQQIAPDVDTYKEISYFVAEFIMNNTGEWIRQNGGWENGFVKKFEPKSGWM

[4] = system: prostate cancer cell line PPC1; assay: Pro-caspase-3 processing, immunoblot, PPC1; format: cell-based; conditions: PPC1, 20 hrs, 0 to 10 μM
Protocol: To determine GA's affect on processing of pro-caspase-3, a marker of apoptosis, cells of the prostate cancer cell line PPC1 were treated with gambogic acid at concentrations from 0 to 10 μM. After 20 hrs, the cells were collected and the cell lysates were analyzed by SDS-PAGE/immunoblotting using anti-caspase 3 antibody. GA induced clearly detectable proteolytic processing of pro-caspase-3 at concentrations≧2 μM.

[5] = target: T3, Bcl-2 (Homo sapiens, UniProt P10415); assay: FPA competitive FITC-Bid BH3 peptide displacement, Bcl-2; format: binding
T3 construct: lacking their C-terminal transmembrane domains (last 20 amino-acids) (“ΔTM”); made in house; host or cells: E. coli XL-1 Blue (pGEX 4T-1)
T3 sequence (P10415 1-219 limits assumed): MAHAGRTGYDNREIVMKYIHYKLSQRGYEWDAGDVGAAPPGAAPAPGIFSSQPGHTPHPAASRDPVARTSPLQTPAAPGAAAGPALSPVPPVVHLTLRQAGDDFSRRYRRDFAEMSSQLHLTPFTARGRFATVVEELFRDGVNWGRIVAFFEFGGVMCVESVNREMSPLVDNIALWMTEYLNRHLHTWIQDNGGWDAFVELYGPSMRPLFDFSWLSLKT
From the text: as §1, §2, §3

[6] = system: dividing cells; conditions: cited from earlier work
[7] = target: T4, Bcl-W (Homo sapiens, UniProt Q92843); assay: FPA competitive FITC-Bid BH3 peptide displacement, Bcl-W; format: binding; conditions: 100 nM GST-Bcl-W, 5 nM FITC-Bid BH3 peptide, read-out: IC50 (μM) for Gambogic acid
T4 construct: lacking their C-terminal transmembrane domains (last 20 amino-acids) (“ΔTM”); made in house; host or cells: E. coli XL-1 Blue (pGEX 4T-1)
T4 sequence (Q92843 1-173 limits assumed): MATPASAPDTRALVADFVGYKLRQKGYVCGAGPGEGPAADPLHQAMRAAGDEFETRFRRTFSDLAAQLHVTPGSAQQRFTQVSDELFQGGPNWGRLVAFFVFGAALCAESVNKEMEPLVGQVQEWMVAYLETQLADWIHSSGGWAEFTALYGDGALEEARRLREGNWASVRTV
From the text: as §1, §2, §3

[8] = system: Jurkat T-cell acute lymphoblastic leukemia; assay: Apoptosis, Annexin V/PI staining, Jurkat; format: cell-based; conditions: Homo sapiens, within 20-24 hrs, read-out: concentration required to induce apoptosis of 50% of the cells
Protocol: (§4) Gambogic acid was used to treat HL-60 (black symbols) or Jurkat (white symbols) cells at concentrations of 0, 0.1, 0.2, 0.5, 2, 5 μM (from left to right).
(§5) Cell Culture, Transfection, and Apoptosis Assays.
(§6) GA overcomes cytoprotection of Bcl-2 in leukemia cells. GA has cytotoxic activity against various tumor cell lines in culture and induces apoptosis (Zhang et al., Bioorg. Med. Chem. 12:309-317, 2004; Zhao et al., Biol. Pharm. Bull. 27:998-1003, 2004). We confirmed the apoptosis-inducing activity of GA using Jurkat T-cell acute lymphoblastic leukemia and HL-60 acute promyelomonocytic leukemia cell lines, using Annexin V/propidium iodide (PI) staining, counting Annexin V+/PT− cells as apoptotic (FIG. 3). The concentration of GA required to induce apoptosis of 50% of the cells within 20-24 hrs was ˜0.2 μM and ˜0.5 μM for Jurkat and HL-60, respectively.

[9] = system: tumor cell lines; conditions: tumor cell lines in culture; cited from earlier work
[10] = system: Bcl-2 over-expressing HL-60 cells; assay: Cytotoxicity in NEO-control vs Bcl-2 over-expressing HL-60 cells; format: cell-based
From the text: Data are representative of at least 3 independent experiments.
as §5
We tested the cytotoxic activity of GA against HL-60 cells that had been stably transfected with NEO-control or Bcl-2-expression plasmids (Konopleva et al., Blood 95:3929-3938, 2000).

[11] = system: HL-60 acute promyelomonocytic leukemia; assay: Apoptosis, Annexin V/PI staining, HL-60; format: cell-based; conditions: Homo sapiens, HL-60, within 20-24 hrs, read-out: concentration required to induce apoptosis of 50% of the cells
Protocol: as §4, §5, §6

[12] = system: anti-apoptotic Bcl-2-family proteins (Bcl-2, Bcl-XL, Bfl-1, Bcl-W, Mcl-1); assay: tBid-induced SMAC release from isolated HeLa mitochondria; format: biochemical, human
Protocol: Mitochondria Purification and Protein Release Assays. HeLa cells were pelleted by centrifugation, and then washed once in HM buffer (10 mM HEPES, pH 7.4, 250 mM mannitol, 10 mM KCl, 5 mM MgCl2, 1 mM EGTA), containing 1 mM PMSF and a mixture of protease inhibitors (Roche Molecular Biochemicals). The cell pellet was then homogenized in HM buffer by 50 strokes of a dounce homogenizer, using a B-type pestle. The homogenate was centrifuged twice at 600 g for 5 min to remove nuclei and debris. The resulting supernatant was centrifuged at 10,000 g for 10 min, and the resulting mitochondria-containing pellet was washed twice with the HM buffer.
For mitochondrial protein release assays, 10 μl of mitochondria (50 μg) were added into a final volume of 50 μl HM buffer containing gambogic acid, tBid or tBid pre-incubated with gambogic acid or Bcl-2 family proteins at 30° C. for 15 min. The reactions were further incubated at 30° C. for 40-60 min, then mitochondria were pelleted by centrifugation and the supernatants were collected, boiled in Laemmli sample buffer, and analyzed by SDS-PAGE/immunoblotting using anti-SMAC antibody (Zhai et al., J. Biol. Chem. 280:15815-15824, 2005).
GA neutralizes activity of Bcl-2-family proteins in vitro. An active, N-terminally truncated form of the pro-apoptotic BH3-containing protein Bid (tBid) induces release of apoptogenic proteins such as SMAC from isolated mitochondria in vitro (Becattini et al., Chem. Biol. 11:1107-1117, 2004; Zhai et al., J. Biol. Chem. 280:15815-15824, 2005; Luciano et al., J. Biol. Chem. 280:15825-15835, 2005). […] Samples were centrifuged to generate supernatants that were analyzed by SDS-PAGE/immunoblotting using anti-SMAC antibody. […] Complete restoration was typically achieved with 5 μM GA, representing an approximately 10:1 molar excess of GA relative to anti-apoptotic Bcl-2-family proteins.

[13] = rats; cited from earlier work
[14] = system: bax−/− bak−/− MEFs; assay: Cytotoxicity in bax-/- bak-/- MEFs; format: cell-based, mouse; conditions: 20 hrs; listed as GA
[15] = target: T5, Bcl-B (Homo sapiens, UniProt Q9HD36); assay: FPA competitive FITC-Bid BH3 peptide displacement, Bcl-B; format: binding; conditions: 100 nM GST-Bcl-B, 5 nM FITC-Bid BH3 peptide, read-out: IC50 (μM) for Gambogic acid
T5 construct: lacking their C-terminal transmembrane domains (last 20 amino-acids) (“ΔTM”); made in house; host or cells: E. coli XL-1 Blue (pGEX 4T-1)
T5 sequence (Q9HD36 1-184 limits assumed): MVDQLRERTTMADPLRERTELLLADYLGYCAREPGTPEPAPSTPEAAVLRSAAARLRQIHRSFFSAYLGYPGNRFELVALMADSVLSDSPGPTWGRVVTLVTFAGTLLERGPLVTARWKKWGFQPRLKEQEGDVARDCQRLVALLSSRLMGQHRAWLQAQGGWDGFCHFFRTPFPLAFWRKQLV
From the text: as §1, §2, §3

[16] = system: bax+/+ bak+/+ MEFs; assay: Cytotoxicity in wild-type MEFs; format: cell-based, mouse; conditions: 20 hrs
From the text: as §5
GA-induced cytotoxicity is only partly Bcl-2-dependent. Anti-apoptotic Bcl-2-family proteins suppress mitochondria-initiated cell death by inhibiting pro-apoptotic Bcl-2 members Bax and Bak (Kroemer and Reed, Nat. Med. 6:513-519, 2000; Reed, Am. J. Pathol. 157:1415-1430, 2000; Li et al., Cell 116 (2 Suppl.):S57-59, 2 p. following S59). Consequently, when cells are genetically engineered to lack Bax and Bak, then Bcl-2 and related cytoprotective proteins no long display an anti-apoptotic phenotype (Wei et al., Science 292:727-730, 2001). Cells doubly deficient in Bax and Bak therefore provide a context for assessing the mechanism of GA-induced toxicity. GA killed transformed mouse fibroblasts (MEFs) generated from bax+/+ bak+/+ embryos in a concentration-dependent manner (FIG. 6A). […] We conclude therefore that GA induces cytotoxicity through mechanisms that are only partly dependent on Bcl-2-family proteins.

[17] = target: T6, Bcl-XL (Homo sapiens, UniProt Q07817); assay: FPA competitive FITC-Bid BH3 peptide displacement, Bcl-XL; format: binding; conditions: 100 nM GST-Bcl-XL, 5 nM FITC-Bid BH3 peptide, read-out: IC50 (μM) for Gambogic acid
T6 construct: lacking their C-terminal transmembrane domains (last 20 amino-acids) (“ΔTM”); made in house; host or cells: E. coli XL-1 Blue (pGEX 4T-1)
T6 sequence (Q07817 1-213 limits assumed): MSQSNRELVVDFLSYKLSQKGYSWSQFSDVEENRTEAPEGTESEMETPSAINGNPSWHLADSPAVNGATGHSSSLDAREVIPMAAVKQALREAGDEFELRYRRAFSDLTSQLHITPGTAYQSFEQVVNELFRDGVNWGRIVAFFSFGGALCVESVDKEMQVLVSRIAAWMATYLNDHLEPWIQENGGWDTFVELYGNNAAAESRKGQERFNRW
From the text: as §1, §2, §3

[18] = target: Hsp70 (Homo sapiens, UniProt P0DMV8); assay: FPA, FITC-ATP binding to Hsp70; conditions: not shown
Chain of Hsp70 (P0DMV8 whole entry): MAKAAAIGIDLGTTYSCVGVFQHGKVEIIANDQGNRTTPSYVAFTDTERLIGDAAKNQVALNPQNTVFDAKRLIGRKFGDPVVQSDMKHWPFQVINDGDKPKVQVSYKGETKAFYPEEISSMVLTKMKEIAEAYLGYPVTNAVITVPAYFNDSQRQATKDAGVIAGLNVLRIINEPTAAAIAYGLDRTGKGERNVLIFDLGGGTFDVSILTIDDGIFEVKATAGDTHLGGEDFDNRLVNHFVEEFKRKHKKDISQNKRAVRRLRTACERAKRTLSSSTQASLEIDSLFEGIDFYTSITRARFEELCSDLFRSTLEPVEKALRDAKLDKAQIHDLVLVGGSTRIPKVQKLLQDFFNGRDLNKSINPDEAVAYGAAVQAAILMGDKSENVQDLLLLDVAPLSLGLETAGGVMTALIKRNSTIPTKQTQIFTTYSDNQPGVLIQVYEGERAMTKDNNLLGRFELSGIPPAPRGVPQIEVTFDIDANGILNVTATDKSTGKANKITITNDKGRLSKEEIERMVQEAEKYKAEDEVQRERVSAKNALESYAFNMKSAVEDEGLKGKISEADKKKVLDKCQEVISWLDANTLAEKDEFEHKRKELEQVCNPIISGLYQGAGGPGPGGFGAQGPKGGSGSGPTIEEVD

[19] = system: BIR3 of XIAP; assay: FPA, rhodamine-SMAC peptide binding to BIR3 of XIAP; conditions: not shown
[20] = target: T7, GST-Bcl-XL (Homo sapiens, UniProt Q07817); assay: TR-FRET assay, FITC-Bad BH3 peptide binding to GST-Bcl-XL; conditions: 10 nM GST-Bcl-XL, 10 nM FITC-Bad BH3 peptide, read-out: apparent IC50, inhibition of FITC-Bad BH3 peptide binding
T7 construct: lacking their C-terminal transmembrane domains (last 20 amino-acids) (“ΔTM”); made in house; host or cells: E. coli XL-1 Blue (pGEX 4T-1)
T7 sequence (Q07817 1-213 limits assumed): as the sequence (Q07817 1-213 limits assumed) above
Protocol: (A) Binding of GST-Bcl-XL to FITC-BH3 peptide was assayed by TR-FRET. The final reaction mixtures contain 10 nM of FITC-Bad BH3 peptide, 2 nM of anti-GST-Turbium, and various concentrations of GST-Bcl-XL proteins in PBS buffer containing 0.005% Tween 20. (B) Analysis of GA competition with BH3 peptide for Bcl-XL binding by TR-FRET. Reaction mixtures of final 20 μl volume contain 2 μl of various concentrations of GA with 10 nM FITC-Bad BH3 peptide, 2 nM anti-GST-Terbium, and 10 nM GST-Bcl-XL protein in PBS buffer containing 0.005% Tween 20. The mixtures are incubated for 30 min at room temperature. TR-FRET signals were measured using excitation at 330 nm, emission for FITC signal at 490 nm, and emission for terbium signal at 520 nm. Data are presented as 520 nm/490 nm ratio (mean±std dev; n=3).
Time-Resolved-Fluorescence Resonance Energy Transfer (TR-FRET) Assays. For TR-FRET assays, GST-Bcl-XL and anti-GST-terbium (Invitrogen) were mixed together with the FITC-Bad BH3 peptide in PBS containing 0.005% tween 20 in 96 well plates in a total volume of 20 μl per well. […] TR-FRET signals were measured with a SpectraMax M5 plate reader (Molecular Devices) using the following settings: excitation at 330 nm, emission for FITC signal at 490 nm, and emission for terbium signal at 520 nm. […]

[21] = system: Jurkat cells; assay: Cytotoxicity of GA analogs, live cells by Annexin V/PI, Jurkat; conditions: 20 hrs, 0-50 μM
[22] = system: Jurkat cells

SMILES: CC(C)=CCC[C@]1(C)C=Cc2c(O)c3c(c(CC=C(C)C)c2O1)O[C@]12C(=C[C@@H]4C[C@H]1C(C)(C)O[C@@]2(C/C=C(/C)C(=O)O)C4=O)C3=O [Gambogic acid]
IC50 [1]: 0.79 µM | Bax protein levels [2]: increases in Bax protein levels | Bcl-2 protein levels [2]: reductions in Bcl-2 protein levels | transferrin receptor internalization [2]: suppressing transferring receptor internalization | IC50 [3]: 1060 nM | suppression of BH3 peptide binding in HTS ([3]; library screen, 10 μM compound): ≥ 50% | concentration giving clearly detectable proteolytic processing of pro-caspase-3 [4]: ≥ 2 µM | IC50 ([5]; 100 nM GST-Bcl-2, 5 nM FITC-Bid BH3 peptide, read-out: IC50 (μM) for Gambogic acid): 1.21 µM | sensitivity to displacement of FITC-BH3 peptide among the six proteins ([5]; FIG. 1): the least | cell cycle arrest [6]: induces G2/M-phase arrest | IC50 [7]: 2.02 µM | EC50 [8]: ~200 nM | concentration required for killing 50% of cells (LD50) [9]: ~1 µM | effect of Bcl-2 over-expression on cytotoxicity [10]: reduced the sensitivity | EC50 [11]: ~500 nM | concentration for complete restoration of tBid-induced SMAC release ([12]; 20 ng tBid, 2 μg Bcl-2-family protein, 50 μg HeLa mitochondria): 5 µM | restoration of tBid-induced SMAC release ([12]; recombinant Bcl-2, Bcl-XL, Bfl-1, Bcl-W or Mcl-1 added, listed as GA): neutralizes their suppressive effects on mitochondria in a concentration-dependent manner; also recorded: restored tBid-induced SMAC release in a concentration-dependent manner | tBid-induced release of SMAC ([12]; recombinant Bcl-2-family proteins not added): enhanced | tolerability [13]: well tolerated | killing of bax−/− bak−/− MEFs [14]: killed; also recorded: retained cytotoxic activity | IC50 [15]: 0.66 µM | killing of wild-type MEFs [16]: killed | IC50 [17]: 1.47 µM | inhibition of FITC-ATP binding [18]: did not inhibit | inhibition of rhodamine-SMAC peptide binding [19]: did not inhibit | IC50 [20]: 1500 nM

activity in BH3 displacement assays [3]: greatly reduced activity
SMILES: CC(C)=CCCC1(C)C=Cc2c(O)c3c(c(CC=C(C)C)c2O1)OC12C(=CCCC1C(C)(C)O[C@@]2(C/C=C(\C)C(=O)O)C(=O)O)C3=O (stereo partly shown) [Garcinolic acid]
cytotoxic activity against cultured leukemia cells [21]: non-toxic

SMILES: CN[C@@H]1C[C@H]2O[C@@](C)([C@@H]1OC)n1c3ccccc3c3c4c(c5c6ccccc6n2c5c31)C(=O)NC4 [staurosporine, reference compound]
effect of Bcl-2 over-expression on cytotoxicity ([10]; HL-60 Bcl-2 vs NEO-control, 8 hrs): block to apoptosis

SMILES: CC(C)=CCC[C@]1(C)C=Cc2c(O)c3c(c(CC=C(C)C)c2O1)O[C@]12C(C[C@@H]4CC1C(C)(C)O[C@@]2(C/C=C(/C)C(=O)O)C4O)C3=O (stereo partly shown) [tetrahydro-GA]
activity in BH3 displacement assays [3]: greatly reduced activity | cytotoxic potency relative to GA (fold less potent) [22]: ~50 fold
